Test results as given in patent publication US10968215B2 (SHANGHAI HAIHE PHARMACEUTICAL CO., LTD., priority 2016, dated 2021).
Read-outs that look alike come from different tables or passages of the source.

Target: PRC2 complex (EZH2 Y641F/EED/SUZ12/RbAp48/AEBP2) (Homo sapiens (Human), UniProt Q15910, Y641F)
Assay: Activity of a compound to PRC2 complex (EZH2 Y641F), HTRF
[1] = read-out: IC50 (EZH2_Y641F), EZH2 Y641F PRC2 complex, HTRF, class symbols

PRC2 complex (EZH2 Y641F/EED/SUZ12/RbAp48/AEBP2), sequence (Q15910 whole entry Y641F): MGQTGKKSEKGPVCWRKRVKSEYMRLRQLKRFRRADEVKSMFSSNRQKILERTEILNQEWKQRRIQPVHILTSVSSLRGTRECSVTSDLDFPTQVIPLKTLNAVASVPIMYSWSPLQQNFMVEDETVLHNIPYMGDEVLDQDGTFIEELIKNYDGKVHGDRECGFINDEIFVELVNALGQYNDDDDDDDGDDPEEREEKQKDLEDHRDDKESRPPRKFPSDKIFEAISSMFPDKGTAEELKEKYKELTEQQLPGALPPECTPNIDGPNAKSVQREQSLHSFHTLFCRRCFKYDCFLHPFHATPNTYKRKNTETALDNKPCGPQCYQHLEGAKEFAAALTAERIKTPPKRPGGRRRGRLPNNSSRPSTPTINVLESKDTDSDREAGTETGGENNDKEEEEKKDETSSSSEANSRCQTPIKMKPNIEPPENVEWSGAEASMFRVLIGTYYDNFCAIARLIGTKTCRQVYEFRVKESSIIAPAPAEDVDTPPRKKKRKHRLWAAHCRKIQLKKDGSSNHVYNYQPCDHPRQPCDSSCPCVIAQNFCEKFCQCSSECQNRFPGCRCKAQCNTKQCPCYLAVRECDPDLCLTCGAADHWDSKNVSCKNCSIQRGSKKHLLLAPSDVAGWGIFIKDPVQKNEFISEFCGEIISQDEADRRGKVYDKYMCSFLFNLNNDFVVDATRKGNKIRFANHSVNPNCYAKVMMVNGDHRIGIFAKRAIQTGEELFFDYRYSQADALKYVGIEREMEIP
PRC2 complex (EZH2 Y641F/EED/SUZ12/RbAp48/AEBP2), sequence (O75530 whole entry partner): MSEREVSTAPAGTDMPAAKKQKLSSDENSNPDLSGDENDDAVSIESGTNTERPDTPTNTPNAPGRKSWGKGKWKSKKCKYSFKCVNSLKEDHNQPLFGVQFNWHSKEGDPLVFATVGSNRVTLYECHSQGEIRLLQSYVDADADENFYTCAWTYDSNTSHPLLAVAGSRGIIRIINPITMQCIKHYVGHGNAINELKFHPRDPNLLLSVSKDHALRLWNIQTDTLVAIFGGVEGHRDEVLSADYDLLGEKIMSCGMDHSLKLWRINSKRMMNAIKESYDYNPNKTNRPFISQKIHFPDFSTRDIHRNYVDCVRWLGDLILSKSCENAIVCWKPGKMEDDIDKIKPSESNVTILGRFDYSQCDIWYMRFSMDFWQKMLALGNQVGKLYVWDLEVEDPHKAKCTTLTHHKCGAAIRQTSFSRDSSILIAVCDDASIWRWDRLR
PRC2 complex (EZH2 Y641F/EED/SUZ12/RbAp48/AEBP2), sequence (Q15022 whole entry partner): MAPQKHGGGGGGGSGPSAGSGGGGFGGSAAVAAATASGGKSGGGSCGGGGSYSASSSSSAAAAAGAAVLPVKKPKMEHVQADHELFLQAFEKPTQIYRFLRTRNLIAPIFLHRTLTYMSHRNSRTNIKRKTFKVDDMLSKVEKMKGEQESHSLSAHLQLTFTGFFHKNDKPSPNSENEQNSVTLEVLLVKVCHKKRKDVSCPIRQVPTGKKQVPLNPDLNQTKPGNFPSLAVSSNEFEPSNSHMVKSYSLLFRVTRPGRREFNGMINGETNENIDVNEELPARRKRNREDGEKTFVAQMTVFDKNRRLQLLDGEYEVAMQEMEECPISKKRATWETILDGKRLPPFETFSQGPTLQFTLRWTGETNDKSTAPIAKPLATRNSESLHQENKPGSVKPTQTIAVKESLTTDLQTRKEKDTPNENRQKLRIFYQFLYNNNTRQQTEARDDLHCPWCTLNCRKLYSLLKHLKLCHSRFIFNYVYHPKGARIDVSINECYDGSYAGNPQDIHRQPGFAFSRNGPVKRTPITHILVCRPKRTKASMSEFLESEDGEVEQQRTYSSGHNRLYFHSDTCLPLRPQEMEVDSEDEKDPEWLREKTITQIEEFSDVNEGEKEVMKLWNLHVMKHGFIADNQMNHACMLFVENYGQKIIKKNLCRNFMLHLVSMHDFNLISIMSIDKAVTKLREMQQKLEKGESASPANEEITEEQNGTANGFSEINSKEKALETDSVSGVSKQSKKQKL
PRC2 complex (EZH2 Y641F/EED/SUZ12/RbAp48/AEBP2), sequence (Q09028 whole entry partner): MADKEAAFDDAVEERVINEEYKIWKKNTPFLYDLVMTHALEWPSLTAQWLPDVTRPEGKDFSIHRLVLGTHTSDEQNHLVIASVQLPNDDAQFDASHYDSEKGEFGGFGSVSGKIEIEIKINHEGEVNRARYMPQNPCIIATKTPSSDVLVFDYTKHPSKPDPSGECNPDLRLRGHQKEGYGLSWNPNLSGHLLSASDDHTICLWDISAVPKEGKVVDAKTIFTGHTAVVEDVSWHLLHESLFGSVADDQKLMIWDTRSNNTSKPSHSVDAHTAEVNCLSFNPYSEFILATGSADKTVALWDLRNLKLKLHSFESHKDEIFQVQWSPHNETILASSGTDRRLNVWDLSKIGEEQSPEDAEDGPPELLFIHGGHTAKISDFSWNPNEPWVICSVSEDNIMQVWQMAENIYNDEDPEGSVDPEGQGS
PRC2 complex (EZH2 Y641F/EED/SUZ12/RbAp48/AEBP2), sequence (Q6ZN18 whole entry partner): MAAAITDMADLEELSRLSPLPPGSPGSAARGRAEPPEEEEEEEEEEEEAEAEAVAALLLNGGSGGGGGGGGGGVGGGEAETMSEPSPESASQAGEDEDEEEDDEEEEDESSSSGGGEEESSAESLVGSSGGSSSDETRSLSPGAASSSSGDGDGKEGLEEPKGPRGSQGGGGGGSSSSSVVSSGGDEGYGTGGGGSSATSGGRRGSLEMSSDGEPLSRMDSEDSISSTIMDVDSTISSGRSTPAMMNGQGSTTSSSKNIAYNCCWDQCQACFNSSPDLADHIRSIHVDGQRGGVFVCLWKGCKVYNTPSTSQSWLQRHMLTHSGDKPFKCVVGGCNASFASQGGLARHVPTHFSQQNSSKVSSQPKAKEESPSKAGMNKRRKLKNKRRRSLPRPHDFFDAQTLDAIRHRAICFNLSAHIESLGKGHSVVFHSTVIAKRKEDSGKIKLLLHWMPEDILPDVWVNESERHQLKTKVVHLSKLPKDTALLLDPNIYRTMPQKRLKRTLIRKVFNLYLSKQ
Experimental: Determination of the Activity of a Compound to PRC2 Complex (EZH2Y641F):
Detection Method: Homogeneous Time-Resolved Fluorescence (HTRF)
Reaction was conducted in darkness at room temperature for 4 h. […] The IC50 values of the compounds were calculated using SoftMax Pro 5.4.1 software.

| Compound | IC50 [1] | also measured |
| --- | --- | --- |
| Cc1cc(C)c(CNC(=O)c2cc3cc(C4CCNCC4)cn3c(C(C)N3CCOCC3)c2C)c(=O)[nH]1 (stereo not shown) [Example 46, N-((4,6-dimethyl-2-oxo-1,2-dihydropyridin-3-yl)methyl)-6-methyl-5-(1-morphinolinylethyl)-2-(piperidin-4-yl)indolizine-7-carboxamide] | < 100 nM | – |
| Cc1cc(C)c(CNC(=O)c2cc3cc(-c4ccnn4C)cn3c(C(C)N3CCOCC3)c2C)c(=O)[nH]1 (stereo not shown) [Example 41, N-((4,6-dimethyl-2-oxo-1,2-dihydropyridin-3-yl)methyl)-6-methyl-2-(1-methyl-1H-pyrazol-5-yl)-5-(1-morpholineylethyl)indolizine-7-carboxamide] | < 100 nM | – |
| N-((4,6-dimethyl-2-oxo-1,2-dihydropyridin-3-yl)methyl)-2-(4-((dimethylamino)methyl)phen yl))-6-methyl-5-(1-morpholinoethyl)indolizine-7-carboxamide [Example 75] | 100 to 1000 nM | – |
| CCN(c1c(C)c(C(=O)NCc2c(C)cc(C)[nH]c2=O)cc2cc(Br)cn12)C1CCN(C(C)=O)CC1 [Example 62, 5-((1-acetylpiperidin-4-yl)(ethyl)amino)-2-bromo-N-((4,6-dimethyl-2-oxo-1,2-dihydropyridine-3-yl)methyl)-6-methylindolizine-7-carboxamide] | – | IC50: < 100 nM |
| Cc1cc(C)c(CNC(=O)c2cc3cc(Br)cn3c(C(C)N3CCN(CCC(F)(F)F)CC3)c2C)c(=O)[nH]1 (stereo not shown) [Example 105, 2-bromo-N-((4,6-dimethyl-2-oxo-1,2-dihydropyridin-3-yl)methyl)-6-methyl-5-(1-(4-(3,3,3-trifluoropropyl)piperazin-1-yl)ethyl)indolizine-7-carboxamide] | 1000 to 10000 nM | – |
| Cc1cc(C)c(CNC(=O)c2cc3cc(-c4cccnc4)cn3c(C(C)N3CCC(N(C)C)CC3)c2C)c(=O)[nH]1 (stereo not shown) [Example 49, N-((4,6-dimethyl-2-oxo-1,2-dihydropyridin-3-yl)methyl)-5-(1-(4-(dimethylamino)piperidin-1-yl)ethyl)-6-methyl-2-(pyridin-3-yl)indolizine-7-carboxamide] | – | IC50: < 100 nM |
| Cc1cc(C)c(CNC(=O)c2cc3cc(-c4cncn4C)cn3c(C(C)N3CCOCC3)c2C)c(=O)[nH]1 (stereo not shown) [Example 86, N-((4,6-dimethyl-2-oxo-1,2-dihydropyridin-3-yl)methyl)-6-methyl-2-(1-methyl-1H-imidazole-5-yl)-5-(1-morpholinoethyl)indolizine-7-carboxamide] | < 100 nM | – |
| COc1cc(-c2ccn3c([C@H](C)N4CCN(CC(F)(F)F)CC4)c(C)c(C(=O)NCc4c(OC)cc(C)[nH]c4=O)cc23)ccn1 (single isomer, unassigned) [Compound 194, (S)—N-((4-methoxy-6-methyl-2-oxo-1,2-dihydropyridin-3-yl)methyl)-1-(2-methoxypyridin-4-yl)-6-methyl-5-(1-(4-(2,2,2-trifluoroethyl)piperazin-1-yl)ethyl)indolizine-7-carboxamide or (R)—N-((4-methoxy-6-methyl-2-oxo-1,2-dihydropyridin-3-yl)methyl)-1-(2-methoxypyridin-4-yl)-6-methyl-5-(1-(4-(2,2,2-trifluoroethyl)piperazin-1-yl)ethyl)indolizine-7-carboxamide] | < 100 nM | – |
| Cc1cc(C)c(CNC(=O)c2cc3cc(-c4cccc(N5CCOCC5)c4)cn3c(C(C)N3CCOCC3)c2C)c(=O)[nH]1 (stereo not shown) [Example 36, N-((4,6-dimethyl-2-oxo-1,2-dihydropyridin-3-yl)methyl)-6-methyl-5-(1-morphinolinylethyl)-2-(3-morphinolinylphenyl)indolizine-7-carboxamide] | < 100 nM | – |
| CCN(c1c(C)c(C(=O)NCc2c(C)cc(C)[nH]c2=O)cc2cc(Br)cn12)C1CCNCC1 [Example 61, 2-bromo-N-((4,6-dimethyl-2-oxo-1,2-dihydropyridin-3-yl)methyl)-5-(ethyl(piperidin-4-yl)amino)-6-methylindolizine-7-carboxamide] | 100 to 1000 nM | – |
| Cc1cc(C)c(CNC(=O)c2cc3cc(-c4cnn(C)c4)cn3c(C(C)N3CCOCC3)c2C)c(=O)[nH]1 (stereo not shown) [Example 42, N-((4,6-dimethyl-2-oxo-1,2-dihydropyridin-3-yl)methyl)-6-methyl-2-(1-methyl-1H-pyrazol-4-yl)-5-(1-morpholinylethyl)indolizine-7-carboxamide] | – | IC50: < 100 nM |
| COc1cc(C)[nH]c(=O)c1CNC(=O)c1cc2c(-c3ccnc4c3CCN4)ccn2c(C(C)N2CCN(CC(F)(F)F)CC2)c1C (stereo not shown) [Compound 207] | < 100 nM | – |
| COc1cc(C)[nH]c(=O)c1CNC(=O)c1cc2c(-c3cc(C)nc(C)c3)ccn2c([C@H](C)N2CCN(CC(F)(F)F)CC2)c1C (single isomer, unassigned) [Compound 174, (S)-1-(2,6-dimethylpyridin-4-yl)-N-((4-methoxy-6-methyl-2-oxo-1,2-dihydropyridine-3-yl)methyl)-6-methyl-5-(1-(4-(2,2,2-trifluoroethyl)piperazin-1-yl)ethyl)indolizine-7-carboxamide or (R) 1-(2,6-dimethylpyridin-4-yl)-N-((4-methoxy-6-methyl-2-oxo-1,2-dihydropyridine-3-yl)methyl)-6-methyl-5-(1-(4-(2,2,2-trifluoroethyl)piperazin-1-yl)ethyl)indolizine-7-carboxamide] | < 100 nM | – |
| COc1cc(-c2ccn3c(C(C)N4CCN(CC(F)(F)F)CC4)c(C)c(C(=O)NCc4c(OC)cc(C)[nH]c4=O)cc23)ccn1 (stereo not shown) [Compound 193, N-((4-methoxy-6-methyl-2-oxo-1,2-dihydropyridin-3-yl)methyl)-1-(2-methoxypyridine-4-yl)-6-methyl-5-(1-(4-(2,2,2-trifluoroethyl)piperazin-1-yl)ethyl)indolizine-7-carboxamide] | < 100 nM | – |
| CCN(c1c(C)c(C(=O)NCc2c(C)cc(C)[nH]c2=O)cc2cc(Br)cn12)C1CCOCC1 [Example 57] | 100 to 1000 nM | – |
| Cc1cc(C)c(CNC(=O)c2cc3c(-c4ccccc4)ccn3c(C(C)N3CCC(N(C)C)CC3)c2C)c(=O)[nH]1 (stereo not shown) [Example 127, N-((4,6-dimethyl-2-oxo-1,2-dihydropyridin-3-yl)methyl)-6-methyl-5-(4-dimethylaminopiperidinylethyl)-1-phenylindolizine-7-carboxamide] | – | IC50: < 100 nM |
| Cc1cc(C)c(CNC(=O)c2cc3cc(-c4ccn(C)n4)cn3c(C(C)N3CCC(N(C)C)CC3)c2C)c(=O)[nH]1 (stereo not shown) [Example 76] | 100 to 1000 nM | – |
| Cc1cc(C)c(CNC(=O)c2cc3cc(-c4cccnc4)cn3c(C(C)N3CCC(N(C)C)CC3)c2C)c(=O)[nH]1 (stereo not shown) [Example 48, N-((4,6-dimethyl-2-oxo-1,2-dihydropyridin-3-yl)methyl)-6-methyl-5-(1-morphinolinylethyl)-2-(tetrahydro-2H-pyran-4-yl)indolizine-7-carboxamide] | < 100 nM | – |
| CCN(c1c(C)c(C(=O)NCc2c(C)cc(C)[nH]c2=O)cc2cccn12)C1CCOCC1 [Example 56, N-((4,6-dimethyl-2-oxo-1,2-dihydropyridin-3-yl)methyl)-6-methyl-5-(ethyl(tetrahydro-2H-pyran-4-yl)amino)indolizine-7-carboxamide] | – | IC50: < 100 nM |
| COc1cc(C)[nH]c(=O)c1CNC(=O)c1cc2c(-c3cccnc3N(C)C)ccn2c(C(C)N2CCN(CC(F)(F)F)CC2)c1C (stereo not shown) [Compound 179, 1-(2-(dimethylamino)pyridin-3-yl)-N-((4-methoxy-6-methyl-2-oxo-1,2-dihydropyridin-3-yl)methyl)-6-methyl-5-(1-(4-(2,2,2-trifluoroethyl)piperazin-1-yl)ethyl)indolizine-7-carboxamide] | < 100 nM | – |
| COc1cc(-c2cc3cc(C(=O)NCc4c(C)cc(C)[nH]c4=O)c(C)c(C(C)N4CCOCC4)n3c2)cc(OC)c1OC (stereo not shown) [Example 37, N-((4,6-dimethyl-2-oxo-1,2-dihydropyridin-3-yl)methyl)-6-methyl-5-(1-morpholinylethyl)-2-(3,4,5-trimethoxyphenyl)indolizine-7-carboxamide] | – | IC50: < 100 nM |
| Cc1cc(C)c(CNC(=O)c2cc3cncn3c(N(C)C3CCOCC3)c2C)c(=O)[nH]1 [Example 68, N-((4,6-dimethyl-2-oxo-1,2-dihydropyridin-3-yl)methyl)-6-methyl-5-(methyl(tetrahydro-2H-pyran-4-yl)amino)imidazo[1,5-a]pyridine-7-carboxamide] | – | IC50: < 100 nM |
| COC(C)c1c(C)c(C(=O)NCc2c(C)cc(C)[nH]c2=O)cc2cccn12 (stereo not shown) [Example 1, N-((4,6-Dimethyl-2-oxo-1,2-dihydropyridin-3-yl)methyl)-5-(1-methoxyethyl)-6-methylindolizine-7-carboxamide] | 100 to 1000 nM | – |
| Cc1cc(C)c(CNC(=O)c2cc3cc(C4=CCOCC4)cn3c(C(C)N3CCOCC3)c2C)c(=O)[nH]1 (stereo not shown) [Example 47] | 100 to 1000 nM | – |
| Cc1cc(C)c(CNC(=O)c2cc3cncn3c(C(C)N3CCOCC3)c2C)c(=O)[nH]1 (stereo not shown) [Example 71, N-((4,6-dimethyl-2-oxo-1,2-dihydropyridin-3-yl)methyl)-6-methyl-5-(1-morphinolinylethyl)imidazo[1,5-a]pyridine-7-carboxamide] | < 100 nM | – |
| COc1cc(C)[nH]c(=O)c1CNC(=O)c1cc2cc(-c3cncs3)cn2c(C(C)N2CCN(CC(F)(F)F)CC2)c1C (stereo not shown) [Example 142, N-((4-methoxy-6-methyl-2-oxo-1,2-dihydropyridin-3-yl)methyl)-6-methyl-2-(thiazole-5-yl)-5-(1-(4-(2,2,2-trifluoroethyl)piperazin-1-yl)ethyl)indolizine-7-carboxamide] | < 100 nM | – |
| Cc1cc(C)c(CNC(=O)c2cc3c(-c4ccc(N5CCOCC5)cc4)ccn3c(C(C)N3CCOCC3)c2C)c(=O)[nH]1 (stereo not shown) [Example 119, N-((4,6-dimethyl-2-oxo-1,2-dihydropyridin-3-yl)methyl)-6-methyl-5-(1-morpholinylethyl)-1-(4-morpholinylphenyl)indolizine-7-carboxamide] | < 100 nM | – |
| COc1cc(C)[nH]c(=O)c1CNC(=O)c1cc2c(-c3cn[nH]c3)ccn2c(C(C)N2CCOCC2)c1C (stereo not shown) [Compound 152, N-((4-Methoxy-6-methyl-2-oxo-1,2-dihydropyridin-3-yl)methyl)-6-methyl-5-(1-morpholinylethyl)-1-(1H-pyrazol-4-yl)indolizine-7-carboxamide] | – | IC50 (read-out: IC50 (EZH2_Y641F), EZH2 Y641F PRC2 complex, HTRF, numeric values): 2.65 nM |
